These are literature values, as cited in patent US4123523A, “Analgesic and sedative polypeptides” (Imperial Chemical Industries Limited, priority 1976, dated 1978).

The subject of the data set is cat. The note with it: injected directly into the third ventricle of the cat.

On to “β-endorphin: residues 61-91 of the naturally-occuring lipolytic polypeptide hormone lipotropin (YGGFMTSEKSQTPLVTLFKNAIIKNAYKKGE; Beta-endorphin; UniProt P01189 237-267, looked up)”, for which the analgesic properties entry is given as “possesses analgesic properties”.
